Assays:
Assay in all cases: relative viability (nuclei count vs DMSO), 5 days (fraction); higher = more cells survive
Trametinib + Crizotinib = compound: CC(=O)Nc1cccc(-n2c(=O)n(C3CC3)c(=O)c3c(Nc4ccc(I)cc4F)n(C)c(=O)c(C)c32)c1 [Trametinib] + C[C@@H](Oc1cc(-c2cnn(C3CCNCC3)c2)cnc1N)c1c(Cl)ccc(F)c1Cl [Crizotinib] (partner 1 µM)
Summary of the method: (§1)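 The day after seeding in 1536-well plates, lung cancer cell lines were treated by pin tool with a single drug, or with a fixed anchor-drug dose together with five library-drug doses (not always all listed) in √10 steps. After 5 days, a combined fix-and-stain solution (final 0.05% Triton X-100, 1% formaldehyde, 1 ug/ml Hoechst) was added. Nuclei counted on 4× images gave relative viability as treated counts over vehicle counts, reported as the median of duplicate plates.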

Trametinib + Bortezomib = compound: CC(=O)Nc1cccc(-n2c(=O)n(C3CC3)c(=O)c3c(Nc4ccc(I)cc4F)n(C)c(=O)c(C)c32)c1 [Trametinib] + CC(C)C[C@H](NC(=O)[C@H](Cc1ccccc1)NC(=O)c1cnccn1)B(O)O [Bortezomib] (partner 0.002 µM)
Summary of the method: as §1

[1] = compound: CN1C=C(C2=CC=CC=C21)/C=C\3/C4=C(C=CC=N4)NC3=O + Cc1cc(Nc2cc(N3CCN(C)CC3)nc(Sc3ccc(NC(=O)C4CC4)cc3)n2)n[nH]1 [Tozasertib] (partner 0.1 µM)
Summary of the method: as §1

Trametinib + AZD7762 = compound: CC(=O)Nc1cccc(-n2c(=O)n(C3CC3)c(=O)c3c(Nc4ccc(I)cc4F)n(C)c(=O)c(C)c32)c1 [Trametinib] + NC(=O)Nc1cc(-c2cccc(F)c2)sc1C(=O)N[C@H]1CCCNC1 [AZD7762] (partner 0.2 µM)
Summary of the method: as §1

Cell Line | relative viability (Trametinib + Crizotinib; first compound 0.0025 µM) | relative viability (Trametinib + Crizotinib; first compound 0.007906 µM) | relative viability (Trametinib + Crizotinib; first compound 0.025 µM) | relative viability (Trametinib + Crizotinib; first compound 0.07906 µM) | relative viability (Trametinib + Crizotinib; first compound 0.25 µM) | relative viability (Trametinib + Bortezomib; first compound 0.0025 µM) | relative viability (Trametinib + Bortezomib; first compound 0.007906 µM) | relative viability (Trametinib + Bortezomib; first compound 0.025 µM) | relative viability (Trametinib + Bortezomib; first compound 0.07906 µM) | relative viability (Trametinib + Bortezomib; first compound 0.25 µM) | relative viability ([1]; first compound 0.02 µM) | relative viability ([1]; first compound 0.06325 µM) | relative viability ([1]; first compound 0.2 µM) | relative viability ([1]; first compound 0.6325 µM) | relative viability ([1]; first compound 2 µM) | relative viability (Trametinib + AZD7762; first compound 0.0025 µM) | relative viability (Trametinib + AZD7762; first compound 0.007906 µM) | relative viability (Trametinib + AZD7762; first compound 0.025 µM) | relative viability (Trametinib + AZD7762; first compound 0.07906 µM) | relative viability (Trametinib + AZD7762; first compound 0.25 µM)
NCI-H661 | 1.12 | 1.19 | 1.03 | 1.04 | 1.08 | 0.82 | 0.689 | 0.728 | 0.534 | 0.54 | 0.344 | 0.349 | 0.365 | 0.4 | 0.36 | – | – | – | – | –
NCI-H1650 | 1.04 | 0.779 | 0.795 | 0.69 | 0.302 | 0.218 | 0.19 | 0.182 | 0.198 | 0.188 | 0.41 | 0.366 | 0.454 | 0.334 | 0.35 | – | – | – | – | –
NCI-H1623 | – | – | – | – | – | – | – | – | – | – | 0.384 | 0.431 | 0.358 | 0.384 | 0.497 | – | – | – | – | –
A549 | 0.64 | 0.44 | 0.394 | 0.181 | 0.074 | – | – | – | – | – | – | – | – | – | – | – | – | – | – | –
NCI-H522 | – | – | – | – | – | – | – | – | – | – | 0.562 | 0.575 | 0.518 | 0.283 | 0.556 | 0.875 | 1.01 | 0.703 | 0.69 | 0.88
IA-LM | 0.771 | 0.407 | 0.16 | 0.141 | 0.112 | 0.621 | 0.392 | 0.174 | 0.178 | 0.111 | – | – | – | – | – | – | – | – | – | –
SW 900 | – | – | – | – | – | – | – | – | – | – | 0.468 | 0.531 | – | 0.452 | 0.389 | 0.666 | 0.518 | 0.575 | 0.47 | 0.268
NCI-H1648 | – | – | – | – | – | – | – | – | – | – | – | 0.435 | 0.435 | 0.387 | 0.372 | 0.69 | 0.716 | 0.879 | 0.78 | 0.441
SK-LU-1 | 0.976 | 0.87 | 0.775 | 0.619 | 0.371 | 1.13 | 0.815 | 0.726 | 0.623 | 0.326 | 0.23 | 0.244 | 0.316 | 0.287 | 0.316 | – | – | – | – | –
NCI-H1563 | 0.944 | 0.747 | 0.817 | 0.785 | 0.623 | 0.854 | 0.794 | 0.824 | 0.682 | 0.616 | – | – | – | – | – | – | – | – | – | –
NCI-H2342 | – | – | – | – | – | – | – | – | – | – | 0.492 | 0.437 | 0.556 | 0.438 | 0.505 | 0.487 | 0.437 | 0.318 | 0.411 | 0.559
SW 1573 | 0.781 | 0.603 | 0.601 | 0.518 | 0.462 | 0.806 | 0.514 | 0.888 | 0.743 | 0.417 | 0.161 | 0.209 | 0.19 | 0.156 | 0.193 | – | – | – | – | –
NCI-H2009 | 1.08 | 0.586 | 0.336 | 0.301 | 0.266 | 0.929 | 0.67 | 0.3 | 0.332 | 0.195 | 0.73 | 0.613 | 0.741 | 0.859 | 0.831 | – | – | – | – | –
Calu-6 | 0.737 | 0.557 | 0.398 | 0.168 | 0.107 | 1.08 | 0.813 | 0.376 | 0.236 | 0.224 | – | – | – | – | – | – | – | – | – | –
NCI-H1395 | – | – | – | – | – | – | – | – | – | – | 0.703 | 0.72 | 0.681 | 0.721 | 0.821 | 0.399 | 0.377 | 0.41 | 0.361 | 0.367
NCI-H1793 | – | – | – | – | – | – | – | – | – | – | 0.306 | 0.37 | 0.296 | 0.258 | 0.197 | 0.44 | 0.466 | 0.252 | 0.335 | 0.264
SK-MES-1 | 0.997 | 0.991 | 0.792 | 0.543 | 0.334 | – | – | – | – | – | 0.945 | 0.749 | 0.917 | 0.874 | 0.886 | – | – | – | – | –
NCI-H1299 | 0.951 | 0.926 | 0.869 | 0.848 | 0.521 | 1.04 | 0.992 | 0.971 | 0.955 | 0.739 | – | – | – | – | – | – | – | – | – | –
NCI-H2228 | 0.33 | 0.398 | 0.438 | 0.254 | 0.247 | 1.02 | 0.876 | 0.801 | 0.711 | 0.433 | 0.15 | 0.223 | – | – | 0.192 | – | – | – | – | –
EBC-1 | 0.196 | 0.181 | 0.187 | 0.159 | 0.162 | 0.631 | 0.544 | 0.427 | 0.376 | 0.337 | – | – | – | – | – | – | – | – | – | –
COR-L23 | 0.66 | 0.682 | 0.665 | 0.425 | 0.337 | 0.982 | 1 | 1.02 | 0.935 | 0.309 | 0.21 | 0.187 | 0.222 | 0.162 | 0.151 | – | – | – | – | –
NCI-H520 | 0.752 | 0.681 | 0.815 | 0.733 | 0.557 | 0.612 | 0.485 | 0.444 | 0.44 | 0.126 | 0.396 | 0.47 | 0.501 | 0.436 | 0.415 | – | – | – | – | –
COR-L 105 | 0.729 | 0.605 | 0.374 | 0.329 | 0.285 | 0.748 | 0.612 | 0.389 | 0.315 | 0.335 | 0.311 | 0.311 | 0.378 | 0.364 | 0.36 | – | – | – | – | –
NCI-H2023 | 0.597 | 0.543 | 0.475 | 0.442 | 0.247 | 0.957 | 0.791 | 0.582 | 0.806 | 0.212 | 0.282 | 0.267 | 0.352 | 0.249 | 0.237 | – | – | – | – | –
